Results from patent US6789546B2, “Filters for preventing or reducing tobacco smoke-associated injury in the aerodigestive tract of a subject” (Technion Research & Development Foundation Ltd., priority 2001, dated 2004).
Each block holds one compound with its values, some of them ahead of it.

What was measured:
oral peroxidase (OPO) [1] = assay: OPO activity in saliva exposed in vitro to tobacco smoke (NBS-SCN assay); format: biochemical, human
oral peroxidase (OPO) [2] = format: biochemical, human; conditions: for OPO activity in the presence of aldehydes: 2 mM acetylaldehyde, 80 μM acrolein, 20 μM crotonaldehyde, TS-treated saliva
lymphocytes [3] = assay: Lymphocyte survival by Trypan Blue exclusion assay; format: cell-based, human
Procedure: Saliva Collection: Saliva was collected from healthy subjects, 3 males and 3 females ranging from 21-47 years of age, under non-stimulatory conditions in a quiet room during the morning between 8 am and noon. Saliva collection was performed at least 1 h after eating by spitting into a recipient for 10 minutes, as previously described (43). Following collection, saliva was immediately centrifuged at 800×g for 10 min at 4° C. to remove cells and cell debris and the resulting supernatant was used for biochemical analyses.
(§1) Lymphocyte Isolation: Blood from 10 consenting, healthy, non-smoking subjects, 5 males and 5 females ranging from 18-55 years of age, was drawn into EDTA-containing vacutainers. Lymphocytes were isolated by Ficoll-Hypaque (Sigma) gradient centrifugation according to the manufacturer's instructions and lymphocytes were suspended at 10^7 cells/ml PBS (Beit-Ha'emek Industries, Israel), and used immediately in experiments.
(§2) A reproducible vacuum was created in the flask and upon application of vacuum for 5 s, 80-100 ml of TS from the lit cigarette was drawn into the flask. […] Saliva treatment of lymphocytes was performed by suspending these in PBS supplemented with 30% (v/v) saliva. Following treatment with the TS of 0.5 cigarettes, flasks were incubated at 37° C. for 20 min in a metabolic shaker and subjected to a further 4 treatments with TS, as described above.
Measurement of Lymphocyte Survival: Lymphocyte viability was assessed by Trypan Blue exclusion assay.

lymphocytes [4] = assay: Western immunoblotting analysis of lymphocyte protein carbonylation; format: cell-based, human
Excerpt: Western Immunoblotting Analysis of Protein Carbonylation: Salivary proteins were separated by SDS-PAGE using a 10% gel and electro-blotted onto nitrocellulose membranes, as previously described (14). The Oxyblot Kit (Intergen Co, Purchase N.Y.) was used with anti-dinitrophenyhydrazine (DNPH) antibodies to label carbonylated proteins. Protein carbonylation levels were then visualized by reacting labelled blots with a secondary HRP-conjugated anti-rabbit antibody followed by ECL detection of secondarily labelled proteins, as previously described (14).
as §1
as §2, with “Treatment of Lymphocytes With TS in the Presence of Saliva: Exposure of lymphocytes to TS was carried out by attaching a Time cigarette (capable of removing particles>[…] in diameter) in which the filter tip was removed to a Cambridge filter which was combined with a vacuum system to aspirate gas-phase TS inside sealed 250 ml flasks containing lymphocytes suspended in 12-15 ml PBS, as previously described (14, 15). A” for “A”
Western Immunoblotting Analysis of Lymphocyte Protein Carbonylation: Lymphocytes were washed twice in PBS following treatment by centrifugation at 2,000 rpm for 2 minutes to remove saliva and other components of the incubation medium. Lymphocytes were then centrifuged at 14,000 rpm for 1 minute and lysed by sonication for 10 seconds in lysis buffer containing 20 mM Tris pH 7.4, 1 mM EGTA, 1 mM PMSF, 50 μM NaVO4 and 50 mM NaF. Lysates were centrifuged at 14,000 rpm for 1 minute and supernatants were harvested for analysis. Carbonylation analysis was performed as described above.

MPO = target: T1, MPO (Homo sapiens, UniProt P05164); assay: Control MPO activity (commercial MPO) in the presence of dapsone; format: biochemical; conditions: 150 μM dapsone
T1 construct: purchased
T1 sequence (P05164 49-745): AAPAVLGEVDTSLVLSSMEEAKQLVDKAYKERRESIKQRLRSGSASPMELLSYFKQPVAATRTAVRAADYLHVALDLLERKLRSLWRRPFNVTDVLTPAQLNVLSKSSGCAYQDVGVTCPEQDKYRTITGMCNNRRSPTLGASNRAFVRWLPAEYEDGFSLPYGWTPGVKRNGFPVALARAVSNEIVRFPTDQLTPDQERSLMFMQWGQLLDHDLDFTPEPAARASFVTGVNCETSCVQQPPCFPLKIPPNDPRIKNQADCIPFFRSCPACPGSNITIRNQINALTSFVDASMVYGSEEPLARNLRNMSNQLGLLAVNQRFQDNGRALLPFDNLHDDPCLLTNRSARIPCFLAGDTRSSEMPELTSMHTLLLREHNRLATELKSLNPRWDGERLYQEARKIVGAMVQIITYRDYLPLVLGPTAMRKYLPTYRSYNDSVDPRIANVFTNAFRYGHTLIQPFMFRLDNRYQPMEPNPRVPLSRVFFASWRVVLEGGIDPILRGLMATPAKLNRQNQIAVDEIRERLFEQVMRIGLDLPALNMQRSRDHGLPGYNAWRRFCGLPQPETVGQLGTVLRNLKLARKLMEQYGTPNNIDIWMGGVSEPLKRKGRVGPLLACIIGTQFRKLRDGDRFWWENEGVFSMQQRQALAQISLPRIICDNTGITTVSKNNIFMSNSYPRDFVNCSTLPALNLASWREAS
Procedure: FIG. 7 is a data plot depicting the effect of increasing concentrations of dapsone (4-aminophenylsulfone) on OPO activity in TS-treated saliva. Abbreviations: NO.1, NO.2, NO.3, NO4 and NO.5 correspond to saliva from 5 different subjects and plasma corresponds to commercial MPO.
Analysis of OPO Activity: OPO activity was measured according to the 2-nitrobenzoic-thiocyanate (NBS-SCN) assay, as previously described (20). Briefly, DTNB is reduced to NBS by addition of β-mercaptoethanol and decreases in NBS concentration by reaction with OSCN^−, a product of OPO, are monitored spectrophotometrically by measuring absorbance at 412 nm at pH 5.6 (18). One unit of enzyme activity was defined as the activity required to cleave 1 μmol of NBS/min at 22° C., using a molar extinction coefficient of 12,800 (20).
Thus, in order to determine which of the MPO or SPO activity components of OPO activity are lost as a result of exposure to TS, OPO activity in TS-treated saliva was measured in the presence of increasing concentrations of 50-150 μM dapsone.

[5] = lymphocytes in PBS, 20 minutes, 80 μM acrolein, 20 μM crotonaldehyde or 2 mM acetaldehyde

SMILES: C/C1=C2/[N-][C@H]([C@H](CC(N)=O)[C@@]2(C)CCC(=O)NC[C@@H](C)OP(=O)([O-])O[C@H]2[C@@H](O)[C@@H](n3cnc4cc(C)c(C)cc43)O[C@@H]2CO)[C@]2(C)N=C(/C(C)=C3N=C(/C=C4N=C1[C@@H](CCC(N)=O)C\4(C)C)[C@@H](CCC(N)=O)[C@]\3(C)CC(N)=O)[C@@H](CCC(N)=O)[C@]2(C)CC(N)=O.[Co+3].[OH-] [OH—CO, hydroxocobalamin]
prevention of loss of OPO activity in saliva (oral peroxidase (OPO) [1]; increasing amounts of OH—CO (0.5, 1, 2 mM, FIG. 14), 40 min after treatment with TS): prevent, to a significant extent | prevention of loss of OPO activity by preincubation (oral peroxidase (OPO) [1]; preincubation of saliva with OH—CO, TS or KCN): could prevent both TS- and KCN-associated loss of OPO activity | prevention of KCN-associated loss of OPO activity (oral peroxidase (OPO) [2]; 1 mM OH—CO, saliva treated 2 min with 1 mM KCN): completely prevent

SMILES: CC(=O)N[C@@H](CS)C(=O)O [NAC, N-acetylcysteine]
effect on death rate of lymphocytes exposed to TS and saliva (lymphocytes [3]): did not alter the death rate

SMILES: [Cl][Fe]([Cl])[Cl] [FeCl3]
inhibition of OPO activity (oral peroxidase (OPO) [2]; saliva exposed 2 h to 1 mM ascorbate or 100 μM FeCl3): did not inhibit OPO activity

SMILES: O=c1[nH]c(=O)c2[nH]c(=O)[nH]c2[nH]1 [uric acid]
lymphocyte protein carbonylation levels (lymphocytes [4]; uric acid added to suspension medium instead of saliva (10 or 100 μM, FIG. 18), no TS): reduced carbonylation levels

SMILES: CC(=O)N(O)CCCCCNC(=O)CCC(=O)N(O)CCCCCNC(=O)CCC(=O)N(O)CCCCCN [deferoxamine]
lymphocyte survival rate (lymphocytes [3]; TS and saliva treatment, 80 minutes, 1 mM agent): 23.7%

SMILES: CC=O [acetaldehyde]
OPO activity in the presence of aldehydes (oral peroxidase (OPO) [2]): unaffected | death rates (lymphocytes [3]; both, human): 92.7%

SMILES: O=C1O[C@H]([C@@H](O)CO)C(O)=C1O [ascorbate]
lymphocyte survival rate (lymphocytes [3]; ascorbate (1 mM) added to PBS containing FeCl3 (90 μM), no saliva, 20 min (FIG. 23 column 8)): 77% | lymphocyte survival rate (lymphocytes [3]; ascorbate (1 mM) added to saliva-containing medium without exposure to TS, 20 min (FIG. 23 column 6)): 78%

SMILES: C/C=C/C=O [crotonaldehyde]
OPO activity in the presence of aldehydes (oral peroxidase (OPO) [2]): unaffected | death rates (lymphocytes [3]; both, human): 75.3% | survival rates (lymphocytes [3]; [5]): 80.3%

SMILES: N#C[S-].[K+] [KSCN, potassium thiocyanate]
protection against TS-induced loss of OPO activity (oral peroxidase (OPO) [1]): significant protection against loss of OPO activity

loss of OPO activity in the presence or absence of the agent (oral peroxidase (OPO) [1]; TS-treated saliva containing ~40% MPO, 150 μM dapsone): similar | Loss of OPO activity (oral peroxidase (OPO) [1]; TS-treated saliva in the presence of 150 μM dapsone): 60-85% | control MPO activity (MPO): unaffected
SMILES: Nc1ccc(S(=O)(=O)c2ccc(N)cc2)cc1 [dapsone, 4-aminophenylsulfone]

SMILES: N[C@@H](CCC(=O)N[C@@H](CS)C(=O)NCC(=O)O)C(=O)O [GSH, L-γ-glutamyl-1-cysteine-glycine]
loss of OPO activity in TS-treated saliva in the presence or absence of the agent (oral peroxidase (OPO) [1]; 1 mM agent): similar | effect on death rate of lymphocytes exposed to TS and saliva (lymphocytes [3]): partially prevented | protection assessed by lymphocyte protein carbonylation levels (lymphocytes [4]; TS and saliva, 20 minutes, 1 mM agent (FIG. 20)): unique protection | protection from aldehyde-induced protein carbonylation (lymphocytes [4]; aldehydes + 1 mM GSH, 20 min (FIG. 21)): protection provided by GSH was similar

SMILES: C=CC=O [acrolein]
OPO activity in the presence of aldehydes (oral peroxidase (OPO) [2]): unaffected | survival rates (lymphocytes [3]; acrolein, first value of 'respectively' (taken as without saliva), time not given): 57.9% | survival rates (lymphocytes [3]; acrolein, second value of 'respectively' (taken as with saliva), time not given): 66.4% | survival rates (lymphocytes [3]; [5]): 63.3% | death rates (lymphocytes [3]; lymphocytes in PBS, 80 minutes, 80 μM acrolein, 20 μM crotonaldehyde or 2 mM acetaldehyde): 57.3% | lymphocyte protein carbonylation levels (lymphocytes [4]; acrolein with saliva versus acrolein alone (FIG. 22: 80 μM, 20 min)): did not enhance carbonylation levels
